Patent US9833002B2, “Biocide compositions” (Ecolab USA Inc., priority 2013, dated 2017)

Legend:
planktonic organisms = experiment: Dynamic flow loop test, planktonic kill after 4 hour contact time; assay type: cell-based; details: 112.5 ppm active THPS
Protocol: (§1) Evaluation of the biocide compositions disclosed herein was performed through a dynamic flow loop test where both planktonic and sessile organisms could be monitored. To start this testing, fluid from the field, as well as cultured organisms from the field, were placed into the system and allowed to grow for approximately 7 weeks, providing a mature biofilm that can then be challenged by the biocide treatment.
(§2) The test system holds approximately 1.5 liters of fluid that are continually circulated over 1018 carbon steel biostuds located in the 6 o'clock position of a modified Robbin's device. The device holds a maximum of eight biostuds in the 6 o'clock position. The production fluid was pumped through the system at a rate of approximately 3.1 gallons per minute, which allows for deposition of microorganisms and solids onto the biostuds. The health of the microbial population was monitored weekly during the biofilm growth period using ATP quantification.
(§3) After concluding the establishment of a mature biofilm, the sessile kill study was initiated. […] A baseline reading was taken, during all of the studies, prior to the addition of the chemical to the individual flow loop. […]
Planktonic kill in the dynamic flow loops was also evaluated immediately after a 4 hour contact time with the biocide.

[1] = tested on: biofilm (sessile organisms) on 1018 carbon steel biostuds; experiment: Dynamic flow loop test, sessile kill study and biofilm regrowth; assay type: cell-based; details: within 24 hours
Protocol: as §1, §2, §3
The initial data point before treatment is set to 100% and all other readings are reported as a percent change compared to the baseline. […]

For “tetrakis(hydroxymethyl)phosphonium sulphate [THPS]”, the “Planktonic kill, % reduction” value (planktonic organisms) was 81.8% and the “Biofilm size after treatment compared to before treatment” value [1] was “larger than it was before treatment”.
